Laboratory results reported in patent US4080381A, “Water soluble tertiary amine boranes” (Mine Safety Appliances Company, priority 1976, dated 1978).
In brackets after ≈: the same amount, converted by molar mass.

What was measured:
[1] = water solubility of the amine boranes; format: physicochemical
Procedure: Two Hundred milliliters of distilled dimethylsulfide (DMS) and 122.5 g (523.5 mmol) of CH3 O(C2 H4 O)3 C2 H4 N(CH3)2 were added to a one liter three necked flask equipped with a magnetic stirring bar, a thermometer and a 250 ml pressure equalizing dropping funnel. 41.4 grams (523.5 mmol) of dimethylsulfide borane (DMSB) was added to the funnel. The DMSB was added dropwise over the next hour while maintaining the reaction vessel temperature between 7°-15° C with ice water cooling. After the reaction was complete, the DMS solvent was removed under vacuum.
(1) 62.0 g (530 mmol) of CH3 CH2 OC2 H4 N(CH3)2 and 41.7 g (530 mmol) of DMSB were reacted in the same manner as example 1.
33.7 g (229.2 mmol) of CH3 OC2 H4 OC2 H4 N(CH3)2 and 18.1 g (230 mmol) of DMSB were reacted in the same manner as example (1). The resulting liquid amine borane has an approximate water solubility of 200 g/l of solution.
113.2 g (1099 mmol) of CH3 OC2 H4 N(CH3)2 and 87.3 g (1099 mmol) DMSB were reacted in the same manner as example 1. […] Inert solvents, such as hydrocarbon or ether solvents, can be used partially or wholly in place of the DMS. Temperature, pressure and reaction proportions are not critical, although it is generally most convenient to use stoichimetric proportions at atmospheric pressure and room temperature or below.

[2] = electroless gold plating: reduction of gold salt solution on palladium chloride activated nickel plate; conditions: mixed with KAuCl4 solution, pH 12.5
Procedure: The amine boranes of this invention are useful as reducing agents in aqueous solutions. For example, solutions of gold salts are reduced by the water soluble amine boranes to plate gold on a catalytically active surface contacted with the solution, as is more fully described in the above referenced co pending application. To illustrate, the pH of one hundred ml of a 3.0 g/l solution of KAuCl4 was raised to 12.5 by the addition of NaOH. In a separate beaker, the pH of 100 ml of a 2.00g/l solution of CH3 OCH2 CH2 N(CH3)2 :BH3 was also raised to 12.5 by the addtion of NaOH. […] A palladium chloride activated substrate of nickel plate was immersed in the stirred bath for one hour at room temperature.

[BH3-][N+](C)(C)CCOCCOCCOCCOC [Example 1]
water solubility (in words) ([1]; in water): very soluble in water

[BH3-][N+](C)(C)CCOCC [Example 2]
solubility in water ([1]; in water at 25° C): 17 mg/mL (≈ 130 mM)

[BH3-][N+](C)(C)CCOCCOC [Example 3]
approximate water solubility ([1]; in water): ~200 g/l of solution

[BH3-][N+](C)(C)CCOC [Example 4]
appearance and stability of mixed plating solution [2]: clear and stable | limiting solubility in water ([1]; in water): 38 g/l of solution
